These results are taken from PubChem BioAssay (NCI).

Holding throughout (test): growth of human tumour cells (NCI), 48 h
The test system of assay [1] is HCT-15 colon.
Assay [2] deals with OVCAR-3 ovarian.
For assay [3], the system named is HT29 colon.
The subject of assay [4] is UACC-62 melanoma.
In assay [5] the test system is SF-268 CNS.
Assay [6] deals with K-562 leukemia.
The test system of assay [7] is MOLT-4 leukemia.
The subject of assay [8] is MALME-3M melanoma.
For assay [9], the system named is HCT-116 colon.
Assay [10] deals with COLO 205 colon.

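Cultured in 96-well plates, cells were exposed to test compound for 48 hours across five concentrations. GI50: concentration for 50% inhibition of growth. TGI is the concentration that stops growth completely.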

As to `CC(C)c1ccccc1S(=O)c1ccccc1C(C)(C)O` (stereo not given), the TGI in assay [1], in [2], in assay [3], in assay [4], in assay [5] and in assay [6] was greater than 100 µM each time. For the same compound, the TGI in assay [7], in assay [8], in assay [9] and in assay [10] was greater than 100 µM in each case.
For `O=C(Nc1ccc([N+](=O)[O-])cc1)C1C(=O)C(=O)N(c2ccc([N+](=O)[O-])cc2)C1=O` (stereo not given), the TGI in assay [1] was greater than 100 µM; in [2], greater than 100 µM; in assay [3], greater than 100 µM; in assay [4], 19.5 µM; in assay [5] it was greater than 100 µM; in assay [6], greater than 100 µM. In addition, the TGI in [7], in [8], in assay [9] and in [10] was greater than 100 µM each time.
`COc1cc(/C=C2\C(=O)Nc3ccc(F)cc32)cc(OC)c1OC`: the GI50 in [1] is 14.9 µM; in assay [2], 22.8 µM; in assay [3], 24.8 µM; in assay [4] it was 11.7 µM; in assay [5] it was 28.3 µM; in assay [6], 5.67 µM. The GI50 was 9.26 µM in assay [7], 29.6 µM in assay [8], 21.2 µM in assay [9] and 62.7 µM in assay [10]. Moreover, the TGI in assay [1], in assay [2], in [3], in assay [4], in [5] and in [6] was greater than 100 µM in each case. In addition, the TGI in [7], in [8], in assay [9] and in assay [10] was greater than 100 µM each time.
Turning to `O=C(/C=C/c1ccccc1)/C=C/c1ccccc1`, the TGI in assay [1] is 70.5 µM; in assay [2], 51.3 µM; in assay [3] it was 35.1 µM; in assay [4], 87.1 µM; in assay [5] it was 66.4 µM; in [6], greater than 100 µM. In addition, the TGI was 86.5 µM in [7], 57.7 µM in assay [8], 32.1 µM in [9] and greater than 100 µM in assay [10].
Take `CCOC(=O)C1=C(C)N(N)C(=S)NC1c1ccc(C)cc1` (stereo not given): the GI50 in assay [1] is 9.1 µM; in [2], 22.4 µM; in assay [3], 26 µM; in assay [4] it was 23.3 µM; in assay [5] it was 67 µM; in assay [6], 21.6 µM. Moreover, the GI50 was 45.7 µM in assay [7], 14.4 µM in assay [8], 65.3 µM in assay [9] and 33.5 µM in assay [10]. Besides, the TGI in assay [1], in assay [2], in assay [3], in assay [4], in [5] and in assay [6] was greater than 100 µM throughout. The TGI in assay [7], in [8], in [9] and in assay [10] was greater than 100 µM throughout.
Turning to `O=C1/C(=C\c2cccn2Cc2ccccc2)c2ccccc2N1c1c(Cl)cccc1Cl`, the GI50 in [1] is 0.885 µM; in assay [2] it was 1.32 µM; in assay [3], 10.7 µM; in [4] it was 3.28 µM; in assay [5] it was greater than 100 µM; in assay [6], greater than 100 µM. In addition, the GI50 in [7] is greater than 100 µM; in assay [8] it was 3.22 µM; in assay [9] it was 7.36 µM; in [10], 1.36 µM. The TGI in assay [1] is greater than 100 µM; in assay [2], greater than 48.7 µM; in assay [3] it was greater than 100 µM; in assay [4], greater than 100 µM; in assay [5] it was greater than 100 µM; in [6], greater than 100 µM. Moreover, the TGI in assay [7] is greater than 100 µM; in [8], greater than 100 µM; in assay [9] it was greater than 100 µM; in assay [10], 6.26 µM.
With `O=C(CSc1nnc(-c2ccccc2NC(=O)C(F)(F)F)c(=O)[nH]1)NC(=O)Nc1ccccc1`, the TGI in assay [1], in [2], in [3], in assay [4], in assay [5] and in assay [6] was greater than 100 µM in each case. The TGI in assay [7], in assay [8], in assay [9] and in [10] was greater than 100 µM in each case.
As for `Nc1nc(Br)nc2c1ncn2C1CC(O)C(CO)O1` (stereo not given), the GI50 was greater than 63.9 µM in assay [1]; greater than 100 µM in assay [2]; 47.7 µM in assay [3]; 2.4 µM in [4]; 99.8 µM in assay [5]; greater than 24 µM in assay [6]. Further, the GI50 is 0.408 µM in assay [7], greater than 100 µM in assay [8], 2.76 µM in assay [9] and 13.7 µM in assay [10]. Moreover, the TGI in [1], in assay [2], in [3], in assay [4], in [5] and in assay [6] was greater than 100 µM each time. Also, the TGI in [7], in [8], in assay [9] and in [10] was greater than 100 µM throughout.
`CCN(CC)CCOc1ccc(/C(=C(\C)c2ccc(F)c(OC)c2)c2ccc(Cl)cc2)cc1`: the GI50 was 1.08 µM in assay [1]; 2.26 µM in assay [2]; 0.582 µM in [3]; 2.71 µM in assay [4]; 2.69 µM in assay [5]; 0.855 µM in assay [6]. In addition, the GI50 in [7] is 2.49 µM; in [8] it was 2.09 µM; in assay [9] it was 2.24 µM; in [10], 1.82 µM. Further, the TGI in assay [1] was determined as 3.39 µM; in assay [2] it was 4.6 µM; in assay [3], 2.87 µM; in assay [4] it was 5.06 µM; in assay [5] it was 5.82 µM; in [6], 6 µM. Also, the TGI in [7] amounted to 6.86 µM; in assay [8], 4.7 µM; in assay [9], 4.86 µM; in [10], 4.51 µM.
